Reference: US12059425B2, “Heterocyclic compounds and uses thereof” (Kumquat Biosciences Inc., priority 2022, dated 2024)

Legend:
K-Ras G12D = target: T1, K-Ras G12D (Homo sapiens, UniProt P01116, G12D); experiment: PPI-HTRF assay, K-Ras G12D / SOS1 interaction; assay type: biochemical; details: HTRF, K-Ras G12D; read-out: PPI-HTRF-5 nM (K-Ras G12D IC50)
T1 construct: made in house; host or cells: E. coli, e.g. BL21 (DE3)
In short: (§1)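 GST-tagged K-Ras (WT or mutant) bound to anti-GST-Eu was mixed with His-hSOS1 bound to anti-6His-XL665 in pH 7.4 HEPES/NaCl/DTT/BSA/Igepal buffer. After ~10 min or longer, HTRF was read (ex 337 nm, em 620/665 nm). IC50 was derived from the 665/620 ratio, with duplicates tested from 10 μM down to 0.01 μM.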

K-Ras G12S = target: T2, K-Ras G12S (Homo sapiens, UniProt P01116, G12S); experiment: PPI-HTRF assay, K-Ras G12S / SOS1 interaction; assay type: biochemical; details: read-out: PPI-HTRF-5 nM (K-Ras G12S IC50)
T2 construct: made in house; host or cells: E. coli, e.g. BL21 (DE3)
In short: as §1

K-Ras G12V = target: T3, K-Ras G12V (Homo sapiens, UniProt P01116, G12V); experiment: PPI-HTRF assay, K-Ras G12V / SOS1 interaction; assay type: biochemical; details: HTRF, K-Ras G12V; read-out: PPI-HTRF-5 nM (K-Ras G12V IC50)
T3 construct: made in house; host or cells: E. coli, e.g. BL21 (DE3)
In short: as §1

wildtype K-Ras = target: T4, wildtype K-Ras (Homo sapiens, UniProt P01116); experiment: PPI-HTRF assay, wildtype K-Ras / SOS1 interaction; assay type: biochemical; details: HTRF, K-Ras wt; read-out: PPI-HTRF-5 nM (K-Ras wt IC50)
T4 construct: made in house; host or cells: E. coli, e.g. BL21 (DE3)
In short: as §1

GP2D cells = experiment: Ras cellular assay, cell proliferation GP2D; assay type: cell-based
In short: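 GP2D cells (G12D Ras mutant) seeded (e.g., 800/well) and treated the next day with a dilution series (e.g., 9-point, 3-fold). After approximately 5 days, viability measured by CellTiter-Glo luminescence; IC50 from four-parameter fit.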

A549 cells = experiment: Ras cellular assay, cell proliferation A549; assay type: cell-based; details: Homo sapiens
In short: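 G12S-mutant A549 cells (800/well) in RPMI-1640 plus 10% heat-inactivated FBS, standard or ultra-low attachment 384-well plates, dosed the day after plating with a 10-point 3-fold series. Viability by CellTiter-Glo luminescence about 6 days later; IC50 from four-parameter fit.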

SW620 cells = experiment: Ras cellular assay, cell proliferation SW620; assay type: cell-based; details: Homo sapiens, SW-620
From the text: For example, this assay can be also used to assess selective growth inhibition of a mutant Ras protein relative to a wildtype, or relative to a different mutant Ras protein.

T2 sequence (P01116 1-188 isoform P01116-2 G12S): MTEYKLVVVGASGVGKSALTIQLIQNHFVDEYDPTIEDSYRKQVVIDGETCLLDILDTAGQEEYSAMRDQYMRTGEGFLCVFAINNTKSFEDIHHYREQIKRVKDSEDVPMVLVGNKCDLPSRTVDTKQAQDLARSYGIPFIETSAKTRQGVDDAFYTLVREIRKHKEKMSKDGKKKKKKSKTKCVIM
T4 sequence (P01116 1-188 isoform P01116-2): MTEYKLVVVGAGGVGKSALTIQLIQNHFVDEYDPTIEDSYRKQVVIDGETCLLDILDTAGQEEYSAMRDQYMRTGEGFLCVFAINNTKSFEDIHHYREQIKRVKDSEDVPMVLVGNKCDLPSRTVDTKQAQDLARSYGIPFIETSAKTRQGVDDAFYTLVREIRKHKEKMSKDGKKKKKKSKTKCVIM
T1 sequence (P01116 1-188 isoform P01116-2 G12D): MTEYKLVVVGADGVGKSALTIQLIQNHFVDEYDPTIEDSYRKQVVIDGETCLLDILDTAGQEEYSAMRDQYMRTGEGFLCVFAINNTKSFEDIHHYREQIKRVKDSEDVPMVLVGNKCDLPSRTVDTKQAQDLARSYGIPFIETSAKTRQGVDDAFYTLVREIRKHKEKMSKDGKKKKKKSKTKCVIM
T3 sequence (P01116 1-188 isoform P01116-2 G12V): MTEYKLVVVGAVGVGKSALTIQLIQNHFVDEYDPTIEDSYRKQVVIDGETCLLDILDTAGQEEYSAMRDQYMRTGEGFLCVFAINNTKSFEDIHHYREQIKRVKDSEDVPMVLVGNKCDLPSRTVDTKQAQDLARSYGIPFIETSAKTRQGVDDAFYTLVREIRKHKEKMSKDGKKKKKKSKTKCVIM

SMILES	IC50 (K-Ras G12D) [µM]	IC50 (K-Ras G12S) [µM]	IC50 (K-Ras G12V) [µM]	IC50 (wildtype K-Ras) [µM]	IC50 (GP2D cells) [µM]	IC50 (A549 cells) [µM]	IC50 (SW620 cells) [µM]
N#Cc1c(N)sc2c(F)ccc(-c3c(Cl)c4c5c(nc(OC[C@@]67CCCN6C[C@H](F)C7)nc5c3F)N3CC[C@H]3CO4)c12 [compound 192, 2-amino-4-((11aS)-9-chloro-7-fluoro-5-(((2R,7aS)-2-fluorotetrahydro-1H-pyrrolizin-7a(5H)-yl)methoxy)-1,2,11,11a-tetrahydroazeto[2′,1′:3,4][1,4]oxazepino [5,6,7-de]quinazolin-8-yl)-7-fluorobenzo[b]thiophene-3-carbonitrile]	< 5	< 5	< 5	< 5	< 5	< 5	< 5
CN1c2nc(OC[C@@]34CCCN3C[C@H](F)C4)nc3c(F)c(-c4ccc(F)c5sc(N)c(C#N)c45)c(Cl)c(c23)OC2CNCC21 (stereo partly drawn) [compound 214, 2-amino-4-(6-chloro-4-fluoro-2-(((2R,7aS)-2-fluorotetrahydro-1H-pyrrolizin-7a(5H)-yl)methoxy)-11-methyl-7a,8,9,10,10a,11-hexahydropyrrolo[3′,4′:2,3][1,4]oxazepino [5,6,7-de]quinazolin-5-yl)-7-fluorobenzo[b]thiophene-3-carbonitrile]	< 5	< 5	< 5	< 5	> 5	> 5	> 5
N#Cc1c(N)sc2c(F)ccc(-c3c(Cl)c4c5c(nc(OC[C@@]67CCCN6C[C@H](F)C7)nc5c3F)N3[C@H](CO4)C[C@@H]4OCC[C@@H]43)c12 [compound 133, 2-amino-4-((5aS,6aS,9aS)-3-chloro-1-fluoro-12-(((2R,7aS)-2-fluorotetrahydro-1H-pyrrolizin-7a(5H)-yl)methoxy)-5a,6,6a,8,9,9a-hexahydro-5H-furo[2″,3″:4′,5′]pyrrolo[2′,1′:3,4][1,4]oxazepino[5,6,7-de]quinazolin-2-yl)-7-fluorobenzo[b]thiophene-3-carbonitrile]	< 5	< 5	< 5	< 5	< 5	< 5	< 5
N#Cc1c(N)sc2c(F)ccc(-c3c(Cl)c4c5c(nc(OC[C@@]67CCCN6C[C@H](F)C7)nc5c3F)N3C(CO)CCC3CO4)c12 (stereo partly drawn) [compound 185, 2-amino-4-(6-chloro-4-fluoro-2-(((2R,7aS)-2-fluorotetrahydro-1H-pyrrolizin-7a(5H)-yl)methoxy)-11-(hydroxymethyl)-8a,9,10,11-tetrahydro-8H-pyrrolo[2′,1′:3,4][1,4]oxazepino[5,6,7-de]quinazolin-5-yl)-7-fluorobenzo[b]thiophene-3-carbonitrile]	< 5	< 5	< 5	< 5	< 5	< 5	< 5
N#Cc1c(N)sc2c(F)ccc(-c3c(Cl)c4c5c(nc(OC[C@@]67CCCN6C[C@H](F)C7)nc5c3F)N(CC(F)F)C3CNCC3O4)c12 (stereo partly drawn) [compound 175, 2-amino-4-(6-chloro-11-(2,2-difluoroethyl)-4-fluoro-2-(((2R,7aS)-2-fluorotetrahydro-1H-pyrrolizin-7a(5H)-yl)methoxy)-7a,8,9,10,10a,11-hexahydropyrrolo[3′,4′:2,3][1,4]oxazepino [5,6,7-de]quinazolin-5-yl)-7-fluorobenzo[b]thiophene-3-carbonitrile]	< 5	< 5	< 5	< 5	< 5	< 5	< 5
N#Cc1c(N)sc2c(F)ccc(-c3c(Cl)c4c5c(nc(OCC67CCCN6C[C@H](F)C7)nc5c3F)N3CCCC[C@@H]3CO4)c12 (stereo partly drawn) [compound 103, 2-amino-4-((5aR)-3-chloro-1-fluoro-12-(((2R)-2-fluorotetrahydro-1H-pyrrolizin-7a(5H)-yl)methoxy)-5,5a,6,7,8,9-hexahydropyrido[2′,1′:3,4][1,4]oxazepino [5,6,7-de]quinazolin-2-yl)-7-fluorobenzo[b]thiophene-3-carbonitrile]	< 5	< 5	< 5	< 5	< 5	< 5	< 5
N#Cc1c(N)sc2c(F)ccc(-c3c(Cl)c4c5c(nc(OC[C@@]67CCCN6C[C@H](F)C7)nc5c3F)N3CCC[C@@H]3CO4)c12 [compound 144, 2-amino-4-((12aR)-10-chloro-8-fluoro-6-(((2R,7aS)-2-fluorotetrahydro-1H-pyrrolizin-7a(5H)-yl)methoxy)-2,3,12,12a-tetrahydro-1H-pyrrolo[2′,1′:3,4][1,4]oxazepino[5,6,7-de]quinazolin-9-yl)-7-fluorobenzo[b]thiophene-3-carbonitrile]	< 5	< 5	< 5	< 5	< 5	< 5	< 5
COCC1CCC2COc3c(Cl)c(-c4ccc(F)c5sc(N)c(C#N)c45)c(F)c4nc(OCC56CCCN5C[C@H](F)C6)nc(c34)N2C1 (stereo partly drawn) [compound 121, 2-amino-4-(6-chloro-4-fluoro-2-(((2R)-2-fluorotetrahydro-1H-pyrrolizin-7a(5H)-yl)methoxy)-11-(methoxymethyl)-8,8a,9,10,11,12-hexahydropyrido[2′,1′:3,4][1,4]oxazepino [5,6,7-de]quinazolin-5-yl)-7-fluorobenzo[b]thiophene-3-carbonitrile]	< 5	< 5	< 5	< 5	< 5	< 5	< 5
N#Cc1c(N)sc2c(F)ccc(-c3c(Cl)c4c5c(nc(OC[C@@]67CCCN6C[C@H](F)C7)nc5c3F)N3CCCNCC3CO4)c12 (stereo partly drawn) [compound 151, 2-amino-4-(12-chloro-10-fluoro-8-(((2R,7aS)-2-fluorotetrahydro-1H-pyrrolizin-7a(5H)-yl)methoxy)-2,3,4,5,14,14a-hexahydro-1H-[1,4]diazepino[2′,1′:3,4][1,4]oxazepino [5,6,7-de]quinazolin-11-yl)-7-fluorobenzo[b]thiophene-3-carbonitrile]	< 5	< 5	< 5	< 5	< 5	< 5	< 5
N#Cc1c(N)sc2c(F)ccc(-c3c(Cl)c4c5c(nc(OC[C@@]67CCCN6C[C@H](F)C7)nc5c3F)N3CCOCC3CO4)c12 (stereo partly drawn) [compound 116, 2-amino-4-(6-chloro-4-fluoro-2-(((2R,7aS)-2-fluorotetrahydro-1H-pyrrolizin-7a(5H)-yl)methoxy)-8a,9,11,12-tetrahydro-8H-[1,4]oxazino[3′,4′:3,4][1,4]oxazepino[5,6,7-de]quinazolin-5-yl)-7-fluorobenzo[b]thiophene-3-carbonitrile]	< 5	< 5	< 5	< 5	< 5	< 5	< 5
N#Cc1c(N)sc2c(F)ccc(-c3c(Cl)c4c5c(nc(OC[C@@]67CCCN6C[C@H](F)C7)nc5c3F)N3Cc5ccnn5CCC3CO4)c12 (stereo partly drawn) [compound 134, 2-amino-4-(3-chloro-1-fluoro-15-(((2R,7aS)-2-fluorotetrahydro-1H-pyrrolizin-7a(5H)-yl)methoxy)-5,5a,6,7-tetrahydro-12H-pyrazolo[5″,1″:3′,4′][1,4]diazepino[7′,1′:3,4][1,4]oxazepino[5,6,7-de]quinazolin-2-yl)-7-fluorobenzo[b]thiophene-3-carbonitrile]	< 5	< 5	< 5	< 5	< 5	< 5	< 5
CC1(O)CCN2c3nc(OC[C@@]45CCCN4C[C@H](F)C5)nc4c(F)c(-c5ccc(F)c6sc(N)c(C#N)c56)c(Cl)c(c34)OCC2C1 (stereo partly drawn) [compound 136, 2-amino-4-(3-chloro-1-fluoro-12-(((2R,7aS)-2-fluorotetrahydro-1H-pyrrolizin-7a(5H)-yl)methoxy)-7-hydroxy-7-methyl-5,5a,6,7,8,9-hexahydropyrido[2′,1′:3,4][1,4]oxazepino [5,6,7-de]quinazolin-2-yl)-7-fluorobenzo[b]thiophene-3-carbonitrile]	< 5	< 5	< 5	< 5	< 5	< 5	< 5
